# Biological target: T1, Myc-Miro1-7A (Homo sapiens, UniProt Q8IXI2, D530A/K427A/K454A/K528A/N428A/Q446A/S432A)
# T1 construct: expressed in transfected cells; host or cells: human skin fibroblasts Healthy-1 and PD-2 (Lipofectamine 2000)
# Test: Drug-resistant mutant Myc-Miro1-7A expressed in fibroblasts, immunostaining
# Type: cell-based
# Details: expressed in PD-2 fibroblasts, CCCP treatment
# Protocol: FIG. 2A-FIG. 2F. Miro1 Reducer Eliminates the Miro1 Defect in PD Fibroblasts. (FIG. 2A) Chemical properties of Miro1 Reducer. (FIG. 2B) Wild-type flies (w^1118) were fed with DMSO alone (0 μM Miro1 Reducer) or Miro1 Reducer in DMSO at 250 μM for 7 days, and lysed and blotted as indicated. The band intensities are normalized to those of Tubulin from the same blots. n=4. (FIG. 2C-FIG. 2E) Fibroblasts were treated, lysed, and blotted as indicated. (FIG. 2C) Band intensities are normalized to those of GAPDH from the same blots and compared to “Healthy-1, no treatment” except otherwise indicated. n=4. (FIG. 2D) Band intensities are normalized to those of ATP5β from the same blots and expressed as a percentage of the mean of “0 μM Miro1 Reducer with CCCP”. Mean±S.E.M is shown. n=3. (FIG. 2E) Band intensities are normalized to those of GAPDH from the same blots and compared to “Healthy-1, no CCCP, no MG132” except otherwise indicated. n=4. (FIG. 2F) Healthy-1 and PD-2 fibroblasts were transfected as indicated, and immunostained with anti-Myc (Miro1, green) and stained with Dapi (blue). The Miro1 intensity is normalized to that of mito-dsRed from the same cell and quantified across 37-62 cells from 5 fields each transfection, 3 independent transfections. Scale bars: 50 μm. For (FIG. 2C-FIG. 2F), both CCCP and Miro1 Reducer were dissolved in DMSO. […]
# T1 sequence (Q8IXI2 whole entry K427A/N428A/S432A/Q446A/K454A/K528A/D530A): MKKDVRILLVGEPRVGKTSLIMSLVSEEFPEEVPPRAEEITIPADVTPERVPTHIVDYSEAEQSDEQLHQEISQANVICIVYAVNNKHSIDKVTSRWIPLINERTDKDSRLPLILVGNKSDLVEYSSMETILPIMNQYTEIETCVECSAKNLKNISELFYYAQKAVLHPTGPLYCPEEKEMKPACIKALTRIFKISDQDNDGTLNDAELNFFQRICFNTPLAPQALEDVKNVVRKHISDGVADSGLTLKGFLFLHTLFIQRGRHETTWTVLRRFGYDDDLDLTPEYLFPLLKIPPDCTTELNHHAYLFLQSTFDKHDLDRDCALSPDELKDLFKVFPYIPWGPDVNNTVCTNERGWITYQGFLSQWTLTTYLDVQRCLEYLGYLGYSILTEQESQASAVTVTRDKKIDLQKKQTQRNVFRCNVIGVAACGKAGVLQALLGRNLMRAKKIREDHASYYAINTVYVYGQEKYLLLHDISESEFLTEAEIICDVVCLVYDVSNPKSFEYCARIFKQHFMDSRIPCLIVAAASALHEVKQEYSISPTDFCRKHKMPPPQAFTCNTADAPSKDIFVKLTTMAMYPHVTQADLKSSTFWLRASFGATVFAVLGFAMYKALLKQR
smiles,measurement,value
O=C(Nc1ccc(Nc2cc(-n3ccnc3)ncn2)cc1)Nc1cccc(F)c1 [Miro1 Reducer],response of mutant Myc-Miro1-7A to compound,failed to respond

# Reference: patent publication US12544375B2, “Small molecule therapeutic for parkinson's disease paired with a biomarker of therapeutic activity” (The Board of Trustees of the Leland Stanford Junior …, priority 2019, dated 2026)
